Test results published in ChEMBL document CHEMBL1133592, “trans-1-[(2-Phenylcyclopropyl)methyl]-4-arylpiperazines: mixed dopamine D(2)/D(4) receptor antagonists as potential antipsychotic agents” (J Med Chem, 2000).

Columns and labels:
[1] = target: T1, Adrenergic receptor alpha-1 (Rattus norvegicus, UniProt P15823+P23944+P43140)
T1 sequence (P15823 whole entry): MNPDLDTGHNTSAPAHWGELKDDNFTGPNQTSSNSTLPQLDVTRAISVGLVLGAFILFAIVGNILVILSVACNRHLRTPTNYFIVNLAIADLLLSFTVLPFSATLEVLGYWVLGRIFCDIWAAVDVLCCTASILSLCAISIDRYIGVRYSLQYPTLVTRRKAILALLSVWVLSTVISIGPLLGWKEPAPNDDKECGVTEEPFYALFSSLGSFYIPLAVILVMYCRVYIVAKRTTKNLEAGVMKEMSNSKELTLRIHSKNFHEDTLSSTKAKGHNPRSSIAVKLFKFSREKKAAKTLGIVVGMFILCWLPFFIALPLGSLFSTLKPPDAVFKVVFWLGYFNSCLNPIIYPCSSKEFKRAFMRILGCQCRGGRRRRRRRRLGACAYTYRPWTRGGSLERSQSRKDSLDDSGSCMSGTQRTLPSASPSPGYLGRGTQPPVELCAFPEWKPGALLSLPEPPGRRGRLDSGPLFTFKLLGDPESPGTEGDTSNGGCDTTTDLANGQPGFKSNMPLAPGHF
T1 sequence (P23944 whole entry): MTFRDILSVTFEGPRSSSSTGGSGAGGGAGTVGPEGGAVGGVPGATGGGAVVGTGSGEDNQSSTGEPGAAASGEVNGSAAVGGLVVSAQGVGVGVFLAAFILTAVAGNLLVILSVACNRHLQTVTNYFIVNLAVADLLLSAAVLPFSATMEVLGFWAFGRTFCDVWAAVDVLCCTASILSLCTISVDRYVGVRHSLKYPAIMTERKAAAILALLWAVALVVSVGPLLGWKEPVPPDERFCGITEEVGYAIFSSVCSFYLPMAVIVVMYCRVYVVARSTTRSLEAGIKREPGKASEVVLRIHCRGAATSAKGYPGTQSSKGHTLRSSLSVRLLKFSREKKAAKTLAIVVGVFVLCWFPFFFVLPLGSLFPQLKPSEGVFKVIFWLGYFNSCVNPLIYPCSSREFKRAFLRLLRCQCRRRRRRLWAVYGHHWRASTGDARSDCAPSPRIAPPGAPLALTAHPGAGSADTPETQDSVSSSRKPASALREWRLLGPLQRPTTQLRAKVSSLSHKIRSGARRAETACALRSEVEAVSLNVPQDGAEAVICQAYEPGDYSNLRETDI
T1 sequence (P43140 whole entry): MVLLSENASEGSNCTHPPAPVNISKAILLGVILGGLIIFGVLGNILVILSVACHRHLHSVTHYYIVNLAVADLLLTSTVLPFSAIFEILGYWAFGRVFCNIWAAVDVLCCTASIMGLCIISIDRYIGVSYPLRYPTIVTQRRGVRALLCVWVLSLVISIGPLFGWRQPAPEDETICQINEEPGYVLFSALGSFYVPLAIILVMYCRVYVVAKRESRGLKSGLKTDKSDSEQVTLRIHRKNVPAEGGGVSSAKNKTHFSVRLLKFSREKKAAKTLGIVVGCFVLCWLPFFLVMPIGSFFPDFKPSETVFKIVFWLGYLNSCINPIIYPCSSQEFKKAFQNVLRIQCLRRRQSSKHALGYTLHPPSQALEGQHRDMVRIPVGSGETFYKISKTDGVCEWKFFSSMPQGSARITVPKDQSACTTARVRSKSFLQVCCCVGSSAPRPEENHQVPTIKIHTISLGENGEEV
Description: Binding affinity to alpha-1 adrenergic receptor from rat brain homogenate, using [3H]- prazosin as the competitive ligand

Rattus norvegicus [2] = species on record: Rattus norvegicus; assay: animal or person; conditions: read-out: MED
Description: Minimum effective dose observed in rat catalepsy experiments

Rattus norvegicus [3] = species on record: Rattus norvegicus; assay: animal or person; conditions: read-out: MED; remark: listed apart in the source
Description: Minimum effective dose that produced a significant effect relative to the amphetamine alone control using a Fisher's LSD post hoc test (P<0.05)

[4] = Half-life determined upon exposure to rat liver microsomes; type: ADME, Microsome
[5] = Half-life determined upon exposure to human liver microsomes; type: ADME, Microsome

Row | IC50 [1] [nM] | SMILES | also measured
1 | 307 | Br.Cc1cc(Cl)ccc1N1CCN(C[C@H]2C[C@@H]2c2ccccc2)CC1 | 
2 | 8 | Br.COc1ccc(Cl)cc1N1CCN(C[C@H]2C[C@@H]2c2ccccc2)CC1 (racemic) | 
3 | 168 | Cl.c1ccc([C@H]2C[C@@H]2CN2CCN(c3ncccn3)CC2)cc1 (racemic) | 
4 | 61 | Br.Fc1ccc([C@H]2C[C@@H]2CN2CCN(c3ccc(Cl)cc3)CC2)cc1 (racemic) | 
5 | 22 | c1ccc([C@H]2C[C@@H]2CN2CCN(c3ccccc3)CC2)cc1 (racemic) | 
6 |  | O=C(CCCN1CCC(O)(c2ccc(Cl)cc2)CC1)c1ccc(F)cc1 [HALOPERIDOL] | minimal effective dose (Rattus norvegicus [2]): 0.5 mg/kg; minimal effective dose (Rattus norvegicus [3]): 0.06 mg/kg
7 | 633 | Br.COc1ccc(N2CCN(C[C@H]3C[C@@H]3c3ccccc3)CC2)cc1 (racemic) | 
8 | 14 | Br.Br.COc1cc(F)ccc1N1CCN(C[C@H]2C[C@@H]2c2ccccc2)CC1 | 
9 | 55 | Cl.c1ccc([C@H]2C[C@@H]2CN2CCN(c3ccccn3)CC2)cc1 (racemic) | 
10 | 29 | Br.COc1cc(Cl)ccc1N1CCN(C[C@H]2C[C@@H]2c2ccccc2)CC1 | 
11 | 137 | Br.Cc1ccc(N2CCN(C[C@H]3C[C@@H]3c3ccccc3)CC2)c(C)c1 | 
12 | 81 | Br.Clc1ccc(N2CCN(C[C@H]3C[C@@H]3c3ccccc3)CC2)cc1 (racemic) | 
13 | 311 | Br.Clc1ccc(N2CCN(C[C@H]3C[C@@H]3c3ccccc3)CC2)c(Cl)c1 (racemic) | 
14 | 31 | Br.Cc1cc(F)ccc1N1CCN(C[C@H]2C[C@@H]2c2ccccc2)CC1 | 
15 |  | CN1CCN(C2=Nc3cc(Cl)ccc3Nc3ccccc32)CC1 [CLOZAPINE] | minimal effective dose (Rattus norvegicus [3]): 0.5 mg/kg
16 | 70 | Br.Clc1cccc(N2CCN(C[C@H]3C[C@@H]3c3ccccc3)CC2)c1 (racemic) | 
17 | > 10000 | Br.c1ccc([C@H]2C[C@@H]2CN2CCN(c3ccncc3)CC2)cc1 (racemic) | 
18 | 45 | Br.Clc1ccc(N2CCN(C[C@H]3C[C@@H]3c3ccccc3)CC2)cc1Cl (racemic) | 
19 | 348 | Clc1ccc(N2CCN(C[C@@H]3C[C@H]3c3ccccc3)CC2)c(Cl)c1 | 
20 | 322 | Br.Clc1ccc(N2CCN(C[C@H]3C[C@@H]3c3ccccc3)CC2)c(Cl)c1 | half-life [4]: 2 min; half-life [5]: 19 min
21 | 131 | Br.Cc1ccc(N2CCN(C[C@@H]3C[C@H]3c3ccccc3)CC2)c(C)c1 | half-life [4]: 3 min; half-life [5]: 16 min
22 | 324 | Br.COc1cccc(N2CCN(C[C@H]3C[C@@H]3c3ccccc3)CC2)c1 (racemic) | 
23 | 9 | Br.Fc1ccc([C@H]2C[C@@H]2CN2CCN(c3ccccc3Cl)CC2)cc1 (racemic) | 
24 | 10 | Br.Clc1ccccc1N1CCN(C[C@H]2C[C@@H]2c2ccccc2)CC1 (racemic) | 
25 | 1341 | Br.Clc1cc(Cl)cc(N2CCN(C[C@H]3C[C@@H]3c3ccccc3)CC2)c1 (racemic) | 
26 | 144 | Br.Cc1ccc(N2CCN(CC3CC3c3ccccc3)CC2)c(C)c1 (racemic) | 
27 | 74 | Br.Oc1ccc([C@H]2C[C@@H]2CN2CCN(c3ccc(Cl)cc3Cl)CC2)cc1 (racemic) | 
28 | 61 | Br.COc1ccc([C@H]2C[C@@H]2CN2CCN(c3ccc(Cl)cc3Cl)CC2)cc1 (racemic) | 
29 | 193 | Br.COc1c(Cl)cc(N2CCN(C[C@H]3C[C@@H]3c3ccccc3)CC2)cc1Cl (racemic) | 
30 | 329 | Br.Clc1cccc(N2CCN(C[C@H]3C[C@@H]3c3ccccc3)CC2)c1Cl (racemic) | 

Row | SMILES | IC50 [1] [nM] | also measured
31 | Br.c1ccc([C@H]2C[C@@H]2CN2CCN(c3cccnc3)CC2)cc1 (racemic) | > 1246 | 
